Assay results from patent EP0082667A1, “Pharmaceutical compositions” (BEECHAM GROUP PLC, priority 1981, dated 1983).
Where two headings read alike, the source gives them in different places.

How the values were obtained:
[1] = Plaque inhibition assay of sera from dosed mice (biological assay of antiviral activity in serum); format: cell-based, Herpes simplex type 1 virus; details: Experiment 1, single 100 mg/kg dose of BVDU, mouse serum, read-out: Antiviral activity in serum (BVDU equiv (µg/mL) ± Standard Deviation)
Experimental: (§1) A single 100 mg/kg dose of BVDU, alone or in combination with 100 mg/kg or 200 mg/kg of probenecid, was administered as a suspension in carboxymethyl cellulose'to groups of 3 starved female Balb/c mice. Blood was collected at 30, 75 (or 85) and 120 minutes after dosing and the serum separated and stored at -20°C.
(§2) Heat inactivated sera from single mice were titrated in plaque inhibition assays using the KOS strain of Herpes simplex type 1 virus in Vero cell monolayers. Antiviral activity is calculated by extrapolation from a standard inhibition dose response curve for BVDU and is quoted as the equivalent concentration of BVDU (in pg/mL) giving the same activity in cell culture.
(§3) Mice dosed with BVDU and serum assayed at 30 and 85 minutes atter drug administration.

[2] = HPLC assay of BVDU, BVDU metabolite and probenecid in mouse serum; format: in vivo, female Balb/c mice; details: for concentration at 1.25 h: Experiment 2, 75 mins after dosing; for concentration at 2 h: Experiment 2, 120 mins after dosing
Experimental: as §1
Instrument: Waters H.P.L.C. Column: RCM 100 C18 Reverse Phase Radical Compression Column Solvents: Solvent (A) 0.05M Ammonium Acetate at pH4.5 Solvent (B) 80% Methanol, 10% Water, 10%(A) Conditions: 50% (B) Detector wavelength: 250 mp Solvent Flow: 1 and 3 mL/min.
Mouse serum samples (90 pL each) were treated with 16% aqueous trichloroacetic acid solution (90 µL) to deposit all proteins and the samples spun down using a micro centrifuge. The supernatant portions were assayed by injection (20 µL) into a reverse phase HPLC column). […] Under these conditions, the BVDU metabolite had retention time of 10.8 min and BVDU 11.6 min. The amounts of BVDU and Probenecid were calculated by comparison with an injected known amount of.each drug. The amounts of BVDU metabolite were calculated by assuming the same detector response as BVDU. All calculations were then extrapolated to give the amount of each component present in each serum sample in pg/mL.
as §3
Mice dosed with BVDU or combinations of BVDU and Probenecid and the serum assayed by HPLC at 30, 75 and 120 minutes after drug administration.

[3] = Detection of BVDU and metabolite in urine of the dosed animals; format: in vivo, mice
[4] = test system: herpes simplex virus type 1 (strain SC-16); assay: Mouse ear herpesvirus model (virus replication and ear inflammation); format: in vivo, female Balb/c mice; details: for Virus titre (log10 p.f.u./ear) / Difference in ear thickness between uninfected and infected ears (mm x 10^-2): oral 3 x daily day 0 to day 4, BVDU 100mg/kg/dose or BVDU/Probenecid 100/200mg/kg/dose
Experimental: 1. Mouse Ear Herpesvirus Model (Reference, H.J. Field, Antimicrob. Ag. Chemother., 21, 744 (1982))
This model is based upon comparisons of viral replication in, and intlammation of, the ears of untreated or treated mice atter infection with herpesvirus.
The left pinna of female Balb/c mice were infected intradermally with 10^5 PFU of herpes simplex virus type 1 (strain SC-16) suspended in 2U^gl of Eagle minimum essential medium. The mice were treated orally 3 times daily from the time of infection until day +4 with BVDU at 100mg/kg/dose or a 1:2 mixture of BVDU and probenecid (100/200mg/kg/dose). At selected times after infection groups of three mice were killed and the ear thickness of both the left and right ears measured using a micrometer gauge. The left ears were then removed and placed individually into 3ml of phosphate buffered saline. Samples were homogenised and sonicated. After centrifugation the supernatant was removed and assayed immediately in a plaque assay in Vero cells.

[5] = test system: herpes simplex virus type 1 (strain SC-16); assay: Hairless mouse cutaneous herpesvirus model (lesion scoring); format: in vivo, adult hairless (HrHr) female mice; details: each x one mouse, BVDU 100mg/kg or BVDU/Probenecid 100/200mg/kg
Experimental: When hairless mice are infected with herpesvirus by dermal scaritication, vesicles appear at the site ot inoculation b days later. These rapidly coalesce to form a spreading unilateral lesion involving one hind quarter, leading eventually to ascending paralysis and death. The ettect ot treatments is assessed by a scoring method as lesions develop.
uroups ot lu adult hairless (HrHr) female mice were anaesthetized using ether and then infected with herpes simplex virus type 1 (strain SC-16) by scarifying an area =1cm^2 at a site parallel with the top of the left hind limb, just below the midline, and introducing a drop ot virus-containing solution to tnis site. single dally doses ot placebo, Bvuu (100mg/kg/dose) or a 1:2 mixture or BVDU and probenecid (100/200mg/kg/dose) were administered orally for seven days, commencing 24 hours after intection. From 4 days atter infection individual mice were examined daily and scored according to the severity ot infection.

[6] = test system: KOS strain of Herpes simplex type 1 virus in Vero cell monolayers; assay: Plaque inhibition assay of sera from dosed mice (biological assay of antiviral activity in serum); format: cell-based; details: inferred from comparison of serum bioassay with HPLC levels of BVDU and metabolite
Experimental: as §1, §2, §3

[7] = mouse, in vivo, 100 mg/kg, single dose, BVDU 100 mg/kg alone or with probenecid 100 or 200 mg/kg, read-out: Concentration (µg/mL) in Serum BVDU
[8] = Day +8, single daily oral doses for seven days
[9] = Day +11, single daily oral doses for seven days
[10] = single dose, probenecid 200 mg/kg alone or 100 or 200 mg/kg with BVDU 100 mg/kg, read-out: Concentration (µg/mL) in Serum Probenecid

Question: Which concentration at 0.5 h ([1]; 30 mins after dosing) does the source give for `O=c1[nH]c(=O)n([C@H]2C[C@H](O)[C@@H](CO)O2)cc1/C=C/Br` [BVDU, E-5-(2-bromovinyl)-2'-deoxyuridine] here?
Answer: 39.8 ± 10.6 µg/mL

Question: And the concentration at 85 min ([1]; 85 mins after dosing)?
Answer: 4.7 ± 1.4 µg/mL

Question: And the concentration at 0.5 h ([2]; in vivo, Experiment 2, 30 mins after dosing, single dose, BVDU 100 mg/kg alone or with probenecid 100 or 200 mg/kg (dose in brackets in label), read-out: Concentration (µg/mL) in Serum BVDU)?
Answer: 26.1 µg/mL

Question: What about the concentration at 0.5 h ([2]; mouse, in vivo, 100 mg/kg, Experiment 1, 30 mins after dosing, single 100 mg/kg dose of BVDU, read-out: HPLC Determinations BVDU Conc (µg/mL) in serum) of the same compound?
Answer: 38 µg/mL

Question: And the concentration at 85 min ([2]; mouse, in vivo, 100 mg/kg, Experiment 1, 85 mins after dosing, single 100 mg/kg dose of BVDU, read-out: HPLC Determinations BVDU Conc (µg/mL) in serum)?
Answer: 3.9 µg/mL

Question: What about the concentration at 1.25 h [2, 7] of the same compound?
Answer: 13 µg/mL

Question: What about the concentration at 2 h [2, 7] of the same compound?
Answer: 3.6 µg/mL

Question: And the “detected in the urine” value [3]?
Answer: only BVDU and none of the metabolite was detected in the urine

Question: What about the “Virus titre (log10 p.f.u./ear)” value ([4]; Experiment A, day 1 post inoculation) of the same compound?
Answer: 3.5 log10 p.f.u./ear

Question: What about the “Virus titre (log10 p.f.u./ear)” value ([4]; Experiment A, day 2 post inoculation) of the same compound?
Answer: 3.0 log10 p.f.u./ear

Question: And the “Virus titre (log10 p.f.u./ear)” value ([4]; Experiment A, day 3 post inoculation)?
Answer: 2.9 log10 p.f.u./ear

Question: And the “Virus titre (log10 p.f.u./ear)” value ([4]; Experiment A, day 4 post inoculation)?
Answer: 3.3 log10 p.f.u./ear

Question: And the “Virus titre (log10 p.f.u./ear)” value ([4]; Experiment A, day 7 post inoculation)?
Answer: 1.3 log10 p.f.u./ear

Question: And the “Virus titre (log10 p.f.u./ear)” value ([4]; Experiment B, day 1 post inoculation)?
Answer: 4.1 log10 p.f.u./ear

Question: And the “Virus titre (log10 p.f.u./ear)” value ([4]; Experiment B, day 2 post inoculation)?
Answer: 3.0 log10 p.f.u./ear

Question: And the “Virus titre (log10 p.f.u./ear)” value ([4]; Experiment B, day 3 post inoculation)?
Answer: 3.3 log10 p.f.u./ear

Question: What about the “Virus titre (log10 p.f.u./ear)” value ([4]; Experiment B, day 4 post inoculation) of the same compound?
Answer: 3.9 log10 p.f.u./ear

Question: What about the “Virus titre (log10 p.f.u./ear)” value ([4]; Experiment B, day 7 post inoculation) of the same compound?
Answer: 0 log10 p.f.u./ear

Question: What about the “Difference in ear thickness between uninfected and infected ears (mm x 10^-2)” value (from here on “Difference”) ([4]; day 1 post inoculation) of the same compound?
Answer: 10.1 mm x 10^-2

Question: And the “Difference” value ([4]; day 2 post inoculation)?
Answer: 14.2 mm x 10^-2

Question: What about the “Difference” value ([4]; day 3 post inoculation) of the same compound?
Answer: 13.4 mm x 10^-2

Question: What about the “Difference” value ([4]; day 4 post inoculation) of the same compound?
Answer: 15.1 mm x 10^-2

Question: And the “Difference” value ([4]; day 7 post inoculation)?
Answer: 20.7 mm x 10^-2

Question: What about the “Difference” value ([4]; day 8 post inoculation) of the same compound?
Answer: 20.8 mm x 10^-2

Question: And the “Difference” value ([4]; day 9 post inoculation)?
Answer: 20.2 mm x 10^-2

Question: What about the “Difference” value ([4]; day 11 post inoculation) of the same compound?
Answer: 16.1 mm x 10^-2

Question: What about the “Difference” value ([4]; day 12 post inoculation) of the same compound?
Answer: 14.0 mm x 10^-2

Question: What about the “Difference” value ([4]; day 14 post inoculation) of the same compound?
Answer: 10.1 mm x 10^-2

Question: And the ear thickness ([4]; oral 3 times daily until day +4, BVDU 100mg/kg/dose or 1:2 mixture 100/200mg/kg/dose)?
Answer: no ettect

Question: And the “Mice with lesion score 2 (Scab at infection site)” value ([5]; Day +4, single daily oral doses for seven days from 24 hours after infection)?
Answer: xxxxxxx

Question: And the “Mice with lesion score 1 (1° Vesicles)” value ([5]; Day +4, single daily oral doses for seven days)?
Answer: xxx

Question: And the “Mice with lesion score 5 (Severe spreading)” value [5, 8]?
Answer: xxxxxxx

Question: What about the “Mice with lesion score 7 (Death)” value [5, 8] of the same compound?
Answer: xx

Question: And the “Mice with lesion score 4 (Spreading)” value [5, 9]?
Answer: xx

Question: What about the “Mice with lesion score 5 (Severe spreading)” value [5, 9] of the same compound?
Answer: xxx

Question: And the “Mice with lesion score 7 (Death)” value [5, 9]?
Answer: xxxx

Question: For `CCCN(CCC)S(=O)(=O)c1ccc(C(=O)O)cc1` [Probenecid], which concentration at 0.5 h ([2]; Experiment 2, 30 mins after dosing, single dose, probenecid 200 mg/kg alone or 100 or 200 mg/kg with BVDU 100 mg/kg, read-out: Concentration (µg/mL) in Serum Probenecid) is on record?
Answer: 3.8 µg/mL

Question: And the concentration at 1.25 h [2, 10]?
Answer: 3.2 µg/mL

Question: And the concentration at 2 h [2, 10]?
Answer: 2.3 µg/mL

Question: For `O=c1[nH]cc(/C=C/Br)c(=O)[nH]1` [BVDU Metabolite], which antiviral activity [6] is on record?
Answer: no significant antiviral activity
